For three molecules, IC50 results are on record in patent US9944647B2 (Incyte Corporation, priority 2015, dated 2018).

As a reminder, the IC50 is the concentration needed to halve the response being measured. A low value points to higher potency.

The assay has as its target LSD-1 enzyme (Homo sapiens (Human), UniProt O60341). Description: LANCE LSD1/KDM1A demethylase assay (LSD1 histone demethylase biochemical assay). Conditions: 1 nM LSD-1 enzyme, 1 hour preincubation at 25° C., Biotin-labeled Histone H3 peptide substrate.
`C[C@@H](O)CN1CCC[C@@H](COc2nc(-c3ccc(C#N)cc3)c(-c3cnc4c(cnn4C)c3)c3nccn23)C1` [Example 136, 4-[5-({(3R)-1-[(2R)-2-hydroxypropyl]piperidin-3-yl}methoxy)-8-(1-methyl-1H-pyrazolo[3,4-b]pyridin-5-yl)imidazo[1,2-c]pyrimidin-7-yl]benzonitrile] showed an IC50 of 0.05 to 0.5 µM.

`C[C@H](O)CN1CCC[C@@H](COc2nc(-c3ccc(C#N)cc3)c(-c3cnc4c(cnn4C)c3)c3nccn23)C1` [Example 137, 4-[5-({(3R)-1-[(2S)-2-hydroxypropyl]piperidin-3-yl}methoxy)-8-(1-methyl-1H-pyrazolo[3,4-b]pyridin-5-yl)imidazo[1,2-c]pyrimidin-7-yl]benzonitrile] had a 50% inhibitory concentration (IC50) not above 0.05 µM.

`Cn1ncc2cc(-c3c(-c4ccc(C#N)cc4)nc(OC[C@@H]4CCCN(CC(C)(C)O)C4)n4ccnc34)cnc21` [Example 138, 4-[5-{[(3R)-1-(2-hydroxy-2-methylpropyl)piperidin-3-yl]methoxy}-8-(1-methyl-1H-pyrazolo[3,4-b]pyridin-5-yl)imidazo[1,2-c]pyrimidin-7-yl]benzonitrile] returned a half-inhibitory concentration (IC50) of 0.05 to 0.5 µM.
